# Patent publication US20070071780A1, “Personal care composition comprising a perfume booster accord” (priority 2005, published 2007)
# Test system: human nose
# Test: Odor intensity evaluation by panelists and Human Recognition Slope Factor (HRSF) calculation in DPG
# Conditions: average of 25 panelists; in DPG; Concentration (X) 0.0004
# Text: The Human Recognition Slope Factor (HRSF) is a tool in choosing the most efficient high odor value materials to create perfume booster accords. […] The higher the number, the more efficient the material will be.
# The HRSF identifies the behavior of perfume materials through the relevant range of concentrations in a given product. The calculation process of the HRSF also defines the concentration where the high odor value material reaches its maximum intensity in a given media.
# The HRSF is determined by the following calculations: HRSF=Ii/xi wherein: HRSF=Human Recognition Slope Factor; Ii is the maximum intensity that a high odor value material delivers in a given media; and xi is the lowest concentration of the high odor value material to reach maximum intensity.
# The value of Ii and xi are calculated using the following two equations. The first equation (I) describes the intensity of a high odor value material across a broad range of concentrations. The second equation (VI) allows one to find the maximum concentration when both mathematical equations reach the same intensity value. I=a/(1+(x/c)ˆb) (I) wherein: I is the Intensity of the high odor value material; x is the concentration of the material; and a, b, and c are experimental constants for each high odor value material.
# The experimental constants of “a, b, and c” are generated by performing a non linear regression analysis using commercially available software. One software package useful in performing the non linear regression analysis is GraphPad Prism 4 for Windows, available from GraphPad Software, Inc., San Diego Calif.
# Odor evaluations of each raw material are conducted among at least 25 people. Each material is diluted to a given concentration, and panelists are requested to grade the smell using a numeric scale (Low: 0-15, Slight: 16-30, Moderate: 31-50, Strong: 51-70, Very Strong: 71-up). Internal controls containing Benzyl salicylate, Citronellol and Ethyl 2 Methyl Butyrate are used to define the standard intensity for each range.
# An illustration of how the non linear regression analysis works is described below. In the following example, the material Alpha Damascone was used for illustrative purposes. The experimental data from 25 panelists indicate that the average value for each observation of Alpha Damascone in DPG is as follows:
# The goal of the software package is to minimize the sum of the squares of the vertical distances of the points from the curve. The software prompts the user to perform the following steps to run an iterative process that allows one to find the values of a, b, and c. The R^2 factor (shown below) will indicate if the objective of minimizing the sum of the squares of the vertical distances of the points from the curve was achieved. The closer the R^2 factor is to 1.0, the better the “best-fit values” will be.
# The software generates the curve defined by the initial values, calculates the sum-of-squares (the sum of the squares of the vertical distances of the points from the curve), adjusts the variables to make the curve come closer to the data points, adjusts the variables again so that the curve comes even closer to the points, keeps adjusting the variables until the adjustments make virtually no difference in the sum-of-squares and reports the best-fit results.
# The “best fit values” are the “a, b, and c” values used in all the equations described herein. Once the “a, b, and c” values are determined, proceed with the following equations.
# By definition, the curve that describes that Intensity and its differential curve will meet at the point where a given material delivers the maximum intensity with the minimum mass. Therefore, the next step is to calculate the intersection point by solving the following equation: (ab(xi/c)ˆb)/(x((x/c)ˆb+1)ˆ2=a/(1+(x/c)ˆb) (V)
# Therefore, (ab(xi/c)ˆb)/(xi((xi/c)ˆb+1)ˆ2−a/(1+(xi/c)ˆb)=0 (VI) […]
row,Compound,Odor Intensity (I)
1,C/C=C\C(=O)C1C(C)=CCCC1(C)C (stereo not drawn) [Alpha Damascone],5

# Same assay, conditions: average of 25 panelists; in DPG; Concentration (X) 0.0022
row,Compound,Odor Intensity (I)
1,C/C=C\C(=O)C1C(C)=CCCC1(C)C (stereo not drawn) [Alpha Damascone],15

# Same assay, conditions: average of 25 panelists; in DPG; Concentration (X) 0.0032
row,Compound,Odor Intensity (I)
1,C/C=C\C(=O)C1C(C)=CCCC1(C)C (stereo not drawn) [Alpha Damascone],25

# Same assay, conditions: average of 25 panelists; in DPG; Concentration (X) 0.0044
row,Compound,Odor Intensity (I)
1,C/C=C\C(=O)C1C(C)=CCCC1(C)C (stereo not drawn) [Alpha Damascone],35

# Same assay, conditions: average of 25 panelists; in DPG; Concentration (X) 0.0072
row,Compound,Odor Intensity (I)
1,C/C=C\C(=O)C1C(C)=CCCC1(C)C (stereo not drawn) [Alpha Damascone],50

# Same assay, conditions: average of 25 panelists; in DPG; Concentration (X) 0.0092
row,Compound,Odor Intensity (I)
1,C/C=C\C(=O)C1C(C)=CCCC1(C)C (stereo not drawn) [Alpha Damascone],55

# Same assay, conditions: average of 25 panelists; in DPG; Concentration (X) 0.0170
row,Compound,Odor Intensity (I)
1,C/C=C\C(=O)C1C(C)=CCCC1(C)C (stereo not drawn) [Alpha Damascone],60

# Same assay, conditions: low hydrophobic media (DPG)
Compound,HRSF (Human Recognition Slope Factor = Ii/xi),Ii (maximum intensity in a given media),xi (lowest concentration to reach maximum intensity)
"CC(=O)C(C)=CC1C(C)=CCCC1(C)C (stereo not shown) [3-buten-2-one, 3-methyl-4-(2,6,6-trimethyl-2-cyclohexen-1-yl)]","1,204",85.50,0.071
C/C=C\C(=O)C1C(C)=CCCC1(C)C (stereo not drawn) [Alpha Damascone],"2,034",62.86,0.0309
"CC1(C)CCC[C@]2(C)[C@H]3CCO[C@]3(C)CC[C@@H]12 [Ambroxan, (3aR-(3aalpha,5abeta,9aalpha,9bbeta))-dodecahydro-3a,6,6,9a-tetramethyl naphtha(2,1-b)furan]","7,675",68.31,0.0089
"Cc1ccc2c(c1)OCC(=O)CO2 [Calone 1951, Methyl-3,4-dioxy(cylcoacetonyl) benzene]","1,030",71.88,0.0698
CCCCCCCCCC=O [Decyl Aldehyde],"1,098",54.35,0.0495
"CCOC(=O)CC1(C)OCCO1 [Fructone, ethyl methyl dioxolane acetate]","2,243",62.36,0.0278
"CC(=O)/C=C/C1C(C)=CCCC1(C)C (stereo not shown) [Ionone Apha, 3-buten-2-one, 4-(2,6,6-trimethyl-2-cyclohexen-1-yl), (E)]","1,157",91.99,0.0795
"CC(=O)C=CC1=C(C)CCCC1(C)C [Ionone Beta, 4-(2,6,6-Trimethyl-1-cyclohexenyl)-3-butenone-2]","15,451",47.90,0.0031
CCCCCCCCCCCC=O [Lauric Ald],"1,409",67.33,0.0478
CC(=O)OC(C)c1ccccc1 (stereo not shown) [Methyl Phenyl Carbinyl Acetate],756,50.63,0.067
"CC1=CCC(C=CC(C)(C)C(C)O)C1(C)C (stereo not shown) [Polysantol, 3,3-Dimethyl-5-(2,2,3-trimethyl-3-cycloenten-1-yl)-4-penten-2-ol]",690,73.16,0.106
"CCC(C)(O)CCCC(C)C (stereo not shown) [Tetra Hydro linalool, Tetra Hydro 3,7-Dimethyl-1,6-octadien-3-ol]",838,53.69,0.0641
CC(=O)OC1CC2CC1C1CC=CC21 (stereo not shown) [Tricyclo decenyl acetate],"1,379",46.74,0.0339
"CC(=O)OC1CCCCC1C(C)(C)C (stereo not shown) [Verdox, ortho tertiary butyl cyclohexanyl acetate]",998,51.91,0.052
"Hexahydro-4,7methano-1H-inden-5(or 6)-yl propionate [Frutene]",738,80.35,0.1089
Methyl Cedrylone,811,84.44,0.1041
